According to patent US12643893B2, “Heteroaryl-pyridinium compound and redox flow battery comprising the same” (Korea Advanced Institute of Science and Technology, priority 2021, dated 2026):
Each block holds one molecule with its values, some of them ahead of it.

Legend:
[1] = Solubility test (UV-vis calibration curves, maximum solubility); conditions: for solubility: organic solvent or mixture, thermodynamic from solid
[2] = Cyclic voltammetry (CV) in three-electrode cells; assay type: physicochemical; conditions: for Peak to peak potential difference (ΔEp) / Ratio of anodic peak current (Ipa) to cathodic peak current (Ipc) (Ipa/Ipc) @50 mV s^−1: 1st event (or only value); for potential shift after CV cycles: FIG. 7; for peak-to-peak potential difference (ΔEp): maintained for 100 CV cycles; for anodic-to-cathodic peak current ratio (Ipa/Ipc): preserved during 100 CV cycles
Method: All electrochemical examinations were carried out using a Biologic VMP3 electrochemical workstation in an Ar-filled glove box (MOTek, negligible O2 and H2O, tested by the ketyl solution).
Cyclic voltammetry (CV) was conducted in three-electrode cells comprised of glassy carbon (GC; diameter (d)=3 mm) as the working electrode (WE), a platinum wire as the counter electrode (CE), and a leak-free Ag/AgCl as the reference electrode (RE). The GC electrodes were polished using alumina slurry before testing (ALS Co., Ltd).
After CV analysis, ferrocene (Fc, ferrocene, 98%, Sigma-Aldrich) was added to the cell to measure its redox potential, and the measured sample potential was converted to the Fc/Fc^+.

[3] = Electron-transfer rate from CV curves (Nicholson method); assay type: physicochemical
Method: The electron-transfer rate (k^0) was calculated from CV curves and using the Nicholson method(equation S2).
where k^o is the electron-transfer constant (cm/s), D is the diffusion coefficient estimated from the above RDE studies, R is the gas constant (8.314 J K^−1 mol^−1), T is the temperature (298 K), v is the scan rate of the CVs (mV s^−1).
The Ψ value was obtained by Kingler and Kochi relation (equation S3).
where ΔEp is the peak-to-peak potential for the corresponding reduction or oxidation event.

[4] = Rotating disk electrode LSV, diffusion coefficient (Levich equation); assay type: physicochemical
Method: To measure diffusion coefficient (D), rotating disk electrode (RDE; ALS Co., Ltd) measurements were conducted with the same three-electrode cells. […] Limited mass-transport provides a current plateau (iL) of redox processes, which is linearly proportional to the square root of the rotating rates (ω^1/2). The diffusion coefficient (D) was calculated by plotting IL as a function of ω^1/2 and through the Levich equation (equation S1). iL=0.620nFAD^2/3ω^1/2η^−1/6Co (equation S1)
where IL is the limiting current (A cm^−2), n is the number of electrons transferred during the redox reaction, F is the Faraday's constant (96485 C mol^−1), A is the area of the electrode (0.0707 cm^2), D is the diffusion coefficient (cm^2 […]), ω is the angular rotation rate (rad s^−1), η is the kinematic viscosity (0.00442 cm^2 s^−1, referred to 0.1 M TBAPF6/MeCN), and Co is the concentration of the sample chemical.

[5] = MeCN, Solubility (M) in MeCN, in MeCN
[6] = after 100 cycles (in parentheses)
[7] = initial, 10 mM in 0.1 M TBABF4/MeCN
[8] = 1st redox event (or the only value given), 10 mM in 0.1 M TBABF4/MeCN
[9] = 2nd redox event, 10 mM in 0.1 M TBABF4/MeCN
[10] = 0.5 M TBATFSI in MeCN, Solubility 0.5M TBATFSI/MeCN (M), electrolyte solution 0.5M TBATFSI/MeCN
[11] = 0.5 M TBATFSI in MeCN, maximum solubility in electrolyte solution, 0.5 M TBATFSI/MeCN
[12] = MeCN, Solubility MeCN (M), in MeCN
[13] = 1st event (single value for BTMAP-Fc), after 100 cycles (in parentheses)
[14] = 1st event (single value for BTMAP-Fc), initial
[15] = 1st redox event (single value for BTMAP-Fc), 4 mM in 0.1 M TBATFSI/MeCN
[16] = 2nd event, after 100 cycles (in parentheses)
[17] = 2nd redox event, 4 mM in 0.1 M TBATFSI/MeCN
[18] = first redox event (single event for BTMAP-Fc), CV, 4 mM in 0.1 M TBATFSI/MeCN
[19] = c1, first cathodic event (single value for BTMAP-Fc, oxidation process)

SMILES: CCCCCCCCCC[n+]1ccc(-c2nc3ccccc3s2)cc1 [Dec-BTP^+·BF4^−, 4-(benzo[d]thiazol-2-yl)-1-decylpyridin-1-ium tetrafluoroborate]
solubility [1, 5]: 0.07 M
Peak to peak potential difference (ΔEp) [2, 6]: 102 mV
Ratio of anodic peak current (Ipa) to cathodic peak current (Ipc) (Ipa/Ipc) @50 mV s^−1 [2, 6]: 0.91
Peak to peak potential difference (ΔEp) [2, 7]: 99 mV
Ratio of anodic peak current (Ipa) to cathodic peak current (Ipc) (Ipa/Ipc) @50 mV s^−1 [2, 7]: 0.93
Formal potential (E^o′) [2, 8]: 1st = −1.24 V vs. Fc/Fc^+
Formal potential (E^o′) [2, 9]: 2nd = −1.96 V vs. Fc/Fc^+
potential shift after CV cycles [2]: positive (+) potential shift

SMILES: c1ccc2sc(-c3cc[n+](CCCCC[n+]4ccc(-c5nc6ccccc6s5)cc4)cc3)nc2c1 [Di-BTP^2+·2PF6^−, 1,1′-(pentane-1,5-diyl)bis(4-(benzo[d]thiazol-2-yl)pyridin-1-ium) hexafluorophosphate]
solubility [1, 5]: 0.1 M

SMILES: C[n+]1ccc(-c2nc3ccccc3s2)cc1 [BTP^+·BF4^−, 4-(benzo[d]thiazol-2-yl)-1-methylpyridin-1-ium tetrafluoroborate]
solubility ([1]; 0.5 M TBABF4 in MeCN, maximum solubility in electrolyte solution, 0.5 M TBABF4/MeCN): 0.087 M
Solubility (M) 0.5M TBAPF6/MeCN ([1]; electrolyte solution, head prints 0.5M TBAPF6/MeCN): 0.087 M
Solubility (M) MeCN ([1]; in MeCN): 0.26 M
Solubility (M) in MeCN ([1]; in MeCN): 0.26 M
maximum solubility in MeCN ([1]; in MeCN): 0.26 M

SMILES: C[n+]1ccc(-c2nc3ccccc3o2)cc1 [BOP^+·BF4^−, 4-(benzo[d]oxazol-2-yl)-1-methylpyridin-1-ium tetrafluoroborate]
Peak to peak potential difference (ΔEp) [2, 6]: 1st = 105 (105) mV
Ratio of anodic peak current (Ipa) to cathodic peak current (Ipc) (Ipa/Ipc) @50 mV s^−1 [2, 6]: 0.46
Peak to peak potential difference (ΔEp) [2, 7]: 1st = 105 (105) mV
Ratio of anodic peak current (Ipa) to cathodic peak current (Ipc) (Ipa/Ipc) @50 mV s^−1 [2, 7]: 0.79
Formal potential (E^o′) [2, 8]: 1st = −1.15 V vs. Fc/Fc^+

SMILES: C[n+]1ccc(-c2nc3ccccc3s2)cc1 [BTP^+·TFSI^−, 4-(benzo[d]thiazol-2-yl)-1-methylpyridin-1-ium bistriflimide]
solubility [1, 10]: 0.47 M
solubility [1, 11]: 0.47 M
solubility [1, 12]: 1 M
Ipa/Ipc @50 mV s^−1 [2, 13]: (0.99)
ΔEp [2, 13]: 1st = 99 (99) mV
Ipa/Ipc @50 mV s^−1 [2, 14]: 1st = 1.01
ΔEp [2, 14]: 1st = 99 (99) mV
E^o′ [2, 15]: 1st = −1.21 V vs. Fc/Fc^+
Ipa/Ipc @50 mV s^−1 [2, 16]: (0.87)
ΔEp [2, 16]: 84 mV
Ipa/Ipc @50 mV s^−1 ([2]; 2nd event, initial): 2nd = 0.95
ΔEp ([2]; 2nd event, initial): 93 mV
E^o′ [2, 17]: 2nd = −1.90 V vs. Fc/Fc^+
Formal potential (E^o′) [2, 18]: −1.21 V vs. Fc/Fc^+
peak-to-peak potential difference (ΔEp) [2]: ~99 mV
anodic-to-cathodic peak current ratio (Ipa/Ipc) [2]: 1.01
Formal potential (E^o′) ([2]; second redox event, CV, 4 mM in 0.1 M TBATFSI/MeCN): −1.90 V vs. Fc/Fc^+
k^o (electron-transfer constant) [3, 19]: c1 = 0.086 cm s^−1
k^o (electron-transfer constant) ([3]; c2, second cathodic event): c2 = 0.090 cm s^−1
D (diffusion coefficient) [4, 19]: c1 = 3.71 X10^−6 cm^2 s^−1
D (diffusion coefficient) ([4]; c2, second cathodic event): c2 = 3.32 X10^−6 cm^2 s^−1

SMILES: C[N+](C)(C)CCC[c-]1cccc1.C[N+](C)(C)CCC[c-]1cccc1.O=S(=O)([N-]S(=O)(=O)C(F)(F)F)C(F)(F)F.O=S(=O)([N-]S(=O)(=O)C(F)(F)F)C(F)(F)F.[Fe+2] [BTMAP-Fc·2TFSI^−, 1,1′-bis[3-(trimethylammonio)propyl]ferrocene dibis-trifluoromethanesulfonimidate, reference compound]
Ipa/Ipc @50 mV s^−1 [2, 13]: 1.03 (1.03)
ΔEp [2, 13]: 149 (149) mV
Ipa/Ipc @50 mV s^−1 [2, 14]: 1.03 (1.03)
ΔEp [2, 14]: 149 (149) mV
E^o′ [2, 15]: −0.03 V vs. Fc/Fc^+
Formal potential (E^o′) [2, 18]: −0.03 V vs. Fc/Fc^+
peak-to-peak potential difference (ΔEp) [2]: ~150 mV
anodic-to-cathodic peak current ratio (Ipa/Ipc) [2]: about 1
electron-transfer constant (k^o) ([3]; 0.1 M TBATFSI/MeCN): 0.034 cm/s
k^o (electron-transfer constant) [3, 19]: 0.034 cm/s
diffusion coefficient (D) ([4]; 0.1 M TBATFSI/MeCN): 2.0×10^−6 cm^2 s^−1
D (diffusion coefficient) [4, 19]: 2.00 X10^−6 cm^2 s^−1

SMILES: Cn1c(-c2cc[n+](C)cc2)nc2ccccc21 [BIP^+·BF4^−, 1-methyl-4-(1-methyl-1H-benzo[d]imidazol-2-yl)pyridin-1-ium tetrafluoroborate]
Peak to peak potential difference (ΔEp) [2, 6]: 99 (99) mV
Ratio of anodic peak current (Ipa) to cathodic peak current (Ipc) (Ipa/Ipc) @50 mV s^−1 [2, 6]: 0.73
Peak to peak potential difference (ΔEp) [2, 7]: 99 (99) mV
Ratio of anodic peak current (Ipa) to cathodic peak current (Ipc) (Ipa/Ipc) @50 mV s^−1 [2, 7]: 0.71
Formal potential (E^o′) [2, 8]: −1.41 V vs. Fc/Fc^+

SMILES: Cc1cc(-c2nc3ccccc3s2)cc(C)[n+]1C [DiMe-BTP^+·BF4^−, 4-(benzo[d]thiazol-2-yl)-1,2,6-trimethylpyridin-1-ium tetrafluoroborate]
Peak to peak potential difference (ΔEp) [2, 6]: 81 mV
Ratio of anodic peak current (Ipa) to cathodic peak current (Ipc) (Ipa/Ipc) @50 mV s^−1 [2, 6]: 0.88
Peak to peak potential difference (ΔEp) [2, 7]: 89 mV
Ratio of anodic peak current (Ipa) to cathodic peak current (Ipc) (Ipa/Ipc) @50 mV s^−1 [2, 7]: 0.89
Formal potential (E^o′) [2, 8]: 1st = −1.33 V vs. Fc/Fc^+
Formal potential (E^o′) [2, 9]: 2nd = −1.94 V vs. Fc/Fc^+
cyclability in the CV profile ([2]; 100 CV cycles, FIGS. 6 and 7): excellent cyclability

Further lines, results first:

solubility [1, 5]: 0.23 M
Peak to peak potential difference (ΔEp) [2, 6]: 124 mV
Ratio of anodic peak current (Ipa) to cathodic peak current (Ipc) (Ipa/Ipc) @50 mV s^−1 [2, 6]: 0.99
Peak to peak potential difference (ΔEp) [2, 7]: 125 mV
Ratio of anodic peak current (Ipa) to cathodic peak current (Ipc) (Ipa/Ipc) @50 mV s^−1 [2, 7]: 0.98
Formal potential (E^o′) [2, 8]: 1st = −1.36 V vs. Fc/Fc^+
Formal potential (E^o′) [2, 9]: 2nd = −2.13 V vs. Fc/Fc^+
potential shift after CV cycles [2]: positive (+) potential shift
SMILES: CCCCCC[n+]1ccc(-c2nc3ccccc3s2)cc1 [Hex-BTP^+·BF4^−, 4-(benzo[d]thiazol-2-yl)-1-hexylpyridin-1-ium tetrafluoroborate]

solubility ([1]; 0.5 M TBAPF6 in MeCN, maximum solubility in electrolyte solution, 0.5 M TBAPF6/MeCN): 0.026 M
Solubility (M) MeCN ([1]; in MeCN): 0.25 M
Solubility (M) in MeCN ([1]; in MeCN): 0.25 M
maximum solubility in MeCN ([1]; in MeCN): 0.25 M
SMILES: C[N+](C)(C)CCC[n+]1ccc(-c2nc3ccccc3s2)cc1 [TMAP-BTP^2+·2PF6^−, 4-(benzo[d]thiazol-2-yl)-1-(3-(trimethylammonio)propyl)pyridin-1-ium hexafluorophosphate]

solubility [1, 10]: 0.34 M
solubility [1, 11]: 0.34 M
solubility [1, 12]: 0.89 M
Ipa/Ipc @50 mV s^−1 [2, 13]: (0.97)
ΔEp [2, 13]: (105) mV
Ipa/Ipc @50 mV s^−1 [2, 14]: 1st = 0.97
ΔEp [2, 14]: 1st = 105 mV
E^o′ [2, 15]: 1st = −1.19 V vs. Fc/Fc^+
Ipa/Ipc @50 mV s^−1 [2, 16]: (1.18)
ΔEp [2, 16]: (85) mV
Ipa/Ipc @50 mV s^−1 ([2]; 2nd event, initial): 2nd = 1.08
ΔEp ([2]; 2nd event, initial): 2nd = 94 mV
E^o′ [2, 17]: 2nd = −1.87 V vs. Fc/Fc^+
k^o (electron-transfer constant) [3, 19]: c1 = 0.114 cm s^−1
k^o (electron-transfer constant) ([3]; c2, second cathodic event): c2 = 0.124 cm s^−1
D (diffusion coefficient) [4, 19]: c1 = 1.91 X10^−6 cm^2 s^−1
D (diffusion coefficient) ([4]; c2, second cathodic event): c2 = 1.91 X10^−6 cm^2 s^−1
SMILES: C[N+](C)(C)CCC[n+]1ccc(-c2nc3ccccc3s2)cc1 [TMAP-BTP^2+·2TFSI^−, 4-(benzo[d]thiazol-2-yl)-1-(3-(trimethylammonio)propyl)pyridin-1-ium bistriflimide]

solubility [1, 5]: 0.1 M
Peak to peak potential difference (ΔEp) [2, 6]: 107 mV
Ratio of anodic peak current (Ipa) to cathodic peak current (Ipc) (Ipa/Ipc) @50 mV s^−1 [2, 6]: 0.98
Peak to peak potential difference (ΔEp) [2, 7]: 104 mV
Ratio of anodic peak current (Ipa) to cathodic peak current (Ipc) (Ipa/Ipc) @50 mV s^−1 [2, 7]: 1.00
Formal potential (E^o′) [2, 8]: 1st = −1.24 V vs. Fc/Fc^+
Formal potential (E^o′) [2, 9]: 2nd = −1.97 V vs. Fc/Fc^+
potential shift after CV cycles [2]: positive (+) potential shift
SMILES: COCC[n+]1ccc(-c2nc3ccccc3s2)cc1 [MOE-BTP^+·BF4^−, 4-(benzo[d]thiazol-2-yl)-1-(2-methoxyethyl)pyridin-1-ium tetrafluoroborate]
